Data on two compounds can be found in patent publication US20240390351A1, “MYCOBACTERIUM ABSCESSUS GROWTH INHIBITOR AND MODEL” (priority 2021, published 2024).

In test [1] the test system is M. abscessus subsp. abscessus ATCC 19977. Description: Growth inhibition dose-response assay, broth microdilution in CAMH medium. It is filed as cell-based, Mycobacterium abscessus subsp. abscessus. Particulars: Mycobacteroides abscessus, ATCC19977; M. abscessus subsp. abscessus ATCC 19977, CAMH medium; concentration that inhibits 50% of growth; read-out: minimum inhibitory concentration (MIC50), growth inhibition. How it is done:
The M. abscessus subsp. abscessus ATCC 19977 strain was used. The Mab strain was maintained in CAMH broth, which was prepared according to the manufacturer's instructions. The growth inhibition dose-response assay was carried out using the broth microdilution method as described previously (Moreira, W., Aziz, D. B. & Dick T., Front. Microbiol. 2016, 7, 199). The MIC50 reported represents the concentration that inhibits 50% of growth compared with the untreated culture.
In general terms: In broth dilution the organism is exposed to a series of concentrations in liquid medium.

Test [2] deals with intracellular ATP synthesis of M. abscessus subsp. abscessus. Nature of the test: Whole-cell ATP measurement (BacTiter-Glo), intracellular ATP synthesis inhibition. The following applies: Mycobacteroides abscessus, CAMH medium, 24 h, read-out: inhibitory concentration (IC50) for intracellular ATP levels. It counts as cell-based, Mycobacterium abscessus subsp. abscessus. On the procedure:
Clear 96-well flat-bottom cell culture plates (Nunc) were filled with 100 μL of CAMH medium in each well. The compound was added to the first well in each row to create two times the desired highest final concentration. Subsequently, a […] twofold serial dilution was carried out starting from the first well in each row. Mab, which was grown to mid-exponential phase, was diluted to an optical density at 600 nm (OD600) of 0.1; 100 μL of the diluted culture was added to each well to create a final OD600 of 0.05 in all the wells. The plates were incubated at 37° C. on a standing incubator for 24 h. At the end of the incubation period, the samples were measured for their intrabacterial ATP content by employing the BacTiter-Glo microbial cell viability assay (Promega), which was carried out according to the manufacturer's instructions as described previously (Hotra, A. et al., Angew. Chem. Int. Ed. Engl. 2020, 59, 13295-13304). […] Luminescence was measured with Cytation 5 multi-mode reader after 10 min of incubation of the plate in the dark at room temperature. The background luminescence reading was subtracted from the luminescence readings of all the samples. The ATP amount is directly proportional to the relative luminescence units. […]
The similar IC50- and MIC50 values determined, indicate that ATP synthesis catalyzed by the F-ATP synthase is the major cause of cell growth inhibition.

Test [3] deals with T1, Mabε (M. abscessus F-ATP synthase subunit ε) (Mycobacteroides abscessus, UniProt B1MLW3).
T1 construct: made in house; host or cells: Escherichia coli C41 (DE3)
Nature of the test: 1H-15N-HSQC NMR titration and R2 relaxation of Mabε with compound. It is filed as binding, Mycobacterium abscessus. The following applies: 1:5 molar ratio of Mabε and Ep1MabF1; residues V9, A10, R13, E14, G68-I72, V77, I79-A81. On the procedure:
All NMR experiments were carried out on a BrukerAvance 700-MHz spectrometer, which was equipped with a cryoprobe at 298 K.
To confirm that Mabε is Ep1MabF1's target, a ^1H-^15N-HSQC NMR titration experiment in the presence (1:5 molar ratio of Mabε and Ep1MabF1) and absence of the compound was performed. Significant changes in chemical shift were (CSP >0.15 ppm) detected for the backbone resonances of amino acids V9, A10, R13, E14, G68-172, V77 and 179-A81 (FIGS. 14C and 15). […] In addition, we measured R2 relaxation data in the presence of Ep1MabF1 and calculated the changes of R2 values between the compound-free and compound-bound protein.

For test [4], the target named is T1, Mabε (M. abscessus F-ATP synthase subunit ε). Nature of the test: NMR titration of Mabε with MgATP. It counts as binding, Mycobacterium abscessus. The following applies: molar ratio of Mabε to MgATP of 1:10. The source says: In thermophilic Bacillus PS3, Bacillus subtilis and chloroplasts, the C terminus of E is described as a mobile regulatory element, altering its conformation in response to nucleotide conditions or the ion motive force (IMF). ATP binding in E of thermophilic Bacillus PS3 and Bacillus subtilis forces the C-terminal helices into a hairpin conformation, which extends in the absence of the nucleotide, leading to an inhibited ATP hydrolysis state. Here, we used the high-quality NMR spectra of Mabε and performed NMR titration experiments in the presence of MgATP (molar ratio of Mabε to MgATP of 1:10). […] ATP binding of the M. smegmatis subunit E was also not observed in the recent cryo-EM structure of the M. smegmatis F-ATP synthase (Guo, H. et al., Nature 2021, 589, 143-147), underlining that the mycobacterial E subunits are not regulated via nucleotide binding to this rotary subunit.

≈ marks a conversion by molar mass, not a printed value.

T1 sequence (B1MLW3 2-121): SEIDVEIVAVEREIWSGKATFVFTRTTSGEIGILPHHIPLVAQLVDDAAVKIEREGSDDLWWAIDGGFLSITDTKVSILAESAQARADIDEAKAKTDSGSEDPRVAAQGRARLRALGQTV

As for `Cc1cccc(Cc2nc3ccccc3n2CCC(=O)NCc2ccccn2)c1` [Ep1MabF1, 3-(2-(3-methylbenzyl)-1H-benzo[d]imidazol-1-yl)-N-(pyridin-2-ylmethyl)propanamide], the MIC50 in test [1] amounted to 420 ± 14 µM (≈ 161 µg/mL). Also, the IC50 in test [2] came out at 600 ± 30 µM. Also, the “chemical shift perturbation (CSP) of Mabε backbone resonances” value in test [3] is given as over 0.15 ppm.
For the compound `Nc1ncnc2c1ncn2[C@@H]1O[C@H](COP(=O)(O)OP(=O)([O-])OP(=O)([O-])O)[C@@H](O)[C@H]1O.[Mg+2]` [MgATP], in test [4], the “chemical shift change of Mabε in 15N HSQC after addition of nucleotide (binding)” value is “no obvious chemical shift was observed”.
